Test results published in patent US20210363486A1, “CARDIOMYOCYTE PROLIFERATION PROMOTING AGENT AND USE THEREOF” (KYOTO UNIVERSITY, priority 2018, published 2021).

Key:
[1] = test system: iPS cell-derived cardiomyocytes; assay: Screening for cardiomyocyte proliferation agent based on cell cycle activation (Fucci green fluorescence and cell number); design: species or system human; details: compounds administered on day 22 after differentiation induction, evaluated on day 25; 384-well plate, 2500 cells per well
Text: The Fucci gene (Cell. 2008 Feb. 8; 132 (3): 487-98.) was constitutively expressed under the CAG promoter using the PiggyBac transposon vector system (System Biosciences) in a healthy human-derived iPS cell line.
The Fucci gene-introduced iPS cell line was induced to differentiate into cardiomyocytes by the embryoid body method described in Funakoshi, S. et al. Sci Rep 8, 19111 […], cardiomyocytes were extracted using a cell sorter on day 20 after induction, and then seeded into a 384-well plate at 2500 cells per well.
On day 22 after differentiation induction, about 4000 types of compounds were administered, and on day 25, the reactivity of the proliferative capacity of iPS cell-derived cardiomyocytes to the drugs was evaluated based on the intensity of Fucci's green fluorescence and the number of cells.
The Fucci reporter emits orange fluorescence in the G1/G0 phase and green fluorescence in the S/G2/M phase of the cell cycle. Since the cell cycle of undifferentiated human iPS cells is activated, most cells emit green fluorescence. However, when these iPS cells are differentiated into cardiomyocytes, the cell cycle usually stops and most cells turn red.

[2] = test system: cardiomyocytes on day 18 of differentiation induction; assay: Flow cytometry of Fucci green fluorescent cardiomyocytes after AM80 administration; type: cell-based, human; details: 1 μM, flow cytometry 48 hours later; vs Control (DMSO); FIG. 1 and FIG. 2
Description: 1 μM AM80 was administered to cardiomyocytes on day 18 of differentiation induction and then analysis was conducted by flow cytometry 48 hours later.

[3] = test system: human iPS cell-derived cardiomyocytes; assay: EdU assay cell proliferation analysis; type: cell-based; details: 1 μM for 48 hours from day 18; compared to control group (DMSO-treated group); FIG. 3
Description: Further, human iPS cell-derived cardiomyocytes on day 18 after differentiation induction were treated with AM80 (1 μM) for 48 hours, and cell proliferation analysis was performed using EdU assay. […] For the EdU assay, Click-it EdU Pacific Blue flow cytometry assay kit, catalog number C10418 (Invitrogen) was used.

[4] = test system: myocardial infarction model immunodeficient mouse (NRG mouse); assay: Engraftment efficiency of transplanted cardiomyocytes by in vivo optical imaging (IVIS); details: cardiomyocytes treated with 1 μM for 48 hours from day 18, intramyocardial injection; compared to DMSO treatment group; FIG. 4
Description: Cardiomyocytes were induced to differentiate from iPS cells (Funakoshi, S. et al. Sci Rep 8, 19111 (2016)) derived from a healthy individual, which constantly express luciferase, by the method described in this document. The cardiomyocytes were treated with AM80 (1 μM) for 48 hours from day 18 after differentiation induction. Cardiomyocytes were extracted by flow cytometry, and then transplanted (1000,000 cells) into a myocardial infarction model immunodeficient mouse (NRG mouse with the left anterior descending coronary artery ligated) by intramyocardial injection.

Row | SMILES | proliferation and cell division of iPS cell-derived cardiomyocytes (Fucci's green fluorescence intensity and number of cells) [1] | further results
1 | CC(C)(C)c1cc(C(=O)/C=C/c2ccc(C(=O)O)cc2)cc(C(C)(C)C)c1 [CH55] | promote the proliferation and cell division | –
2 | O=C1NC(=O)C(=Cc2ccc(-c3ccc(F)cc3)o2)S1 (stereo in doubt) [CAY10505] | promote the proliferation and cell division | –
3 | CC(C)(C)NS(=O)(=O)c1cncc(-c2cc(F)c3nc(N)nn3c2)c1 [CZC24832] | promote the proliferation and cell division | –
4 | O=C(O)c1ccc2cc(-c3ccc(O)c(C45CC6CC(CC(C6)C4)C5)c3)ccc2c1 [CD437] | promote the proliferation and cell division | –
5 | CC1=C(/C=C/C(C)=C/C=C/C(C)=C/C(=O)O)C(C)(C)CCC1 [All trans retinoic acid] | promote the proliferation and cell division | –
6 | Cc1ccccc1C(C(=O)NC1CCCCC1)N(C(=O)Cn1ccnc1C)c1cccc(F)c1 (centres unmarked) [AGI5198, N-[2-(cyclohexylamino)-1-(2-methylphenyl)-2-oxoethyl]-N-(3-fluorophenyl)-2-methyl-1H-imidazole-1-acetamide] | promote the proliferation and cell division | –
7 | CC1(C)CCC(C)(C)c2cc(C(=O)Nc3ccc(C(=O)O)cc3)ccc21 [AM580] | promote the proliferation and cell division | –
8 | CC1(C)CCC(C)(C)c2cc(NC(=O)c3ccc(C(=O)O)cc3)ccc21 [AM80] | promote the proliferation and cell division | green fluorescent cells (activation of cell cycle) [2]: significant increase; cell proliferation activity (EdU assay) [3]: significant increase; engraftment efficiency of transplanted cardiomyocytes [4]: significant improvement
